Columns and labels:
[1] = target: C5aR (Homo sapiens, UniProt P21730); settings: read-out: IC50, inhibition of C5a-induced human PMN migration; human PMNs, 10 nM C5a
Experimental: (§1) Migration of human, rat, and mouse PMNs was evaluated using a 48-well micro-chemotaxis chamber, as previously described (Bertini et al. [2004]). […] Fifty microliters of cell suspension (1.5 × 10^6/ml for human PMNs, 3.0 × 10^6/ml for rat and mouse PMNs) pre-incubated at 37 °C for 15 min in the presence or absence of different concentrations of DF3016A or vehicle was seeded in the upper compartment. The chamber was incubated at 37 °C in air with 5% CO2 for 45 min. At the end of incubation, filters containing migrated cells were removed, fixed, and stained with Diff-Quik, and five oil immersion fields at high magnification (×100; Zeiss microscope) were counted after sample coding.

[2] = target: mouse C5aR (Mus musculus, UniProt P30993); settings: read-out: IC50, mouse C5aR (C5a-induced PMN migration); mouse PMNs, 10 nM mC5a
mouse C5aR, sequence (P30993 whole entry): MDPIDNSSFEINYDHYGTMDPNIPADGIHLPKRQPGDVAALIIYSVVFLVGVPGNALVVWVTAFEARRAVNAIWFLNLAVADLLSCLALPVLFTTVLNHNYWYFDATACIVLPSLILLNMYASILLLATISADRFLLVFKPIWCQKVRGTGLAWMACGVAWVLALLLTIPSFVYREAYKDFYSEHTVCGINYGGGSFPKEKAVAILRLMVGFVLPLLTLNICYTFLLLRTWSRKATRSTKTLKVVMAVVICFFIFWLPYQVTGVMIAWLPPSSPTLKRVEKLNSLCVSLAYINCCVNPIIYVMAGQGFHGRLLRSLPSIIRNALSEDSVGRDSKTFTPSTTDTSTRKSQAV
Experimental: (§2) Murine and rat PMNs were isolated from peritoneal cavities injected with 1.5 ml of 3% thioglycolate in saline to male Balb/c mice (20–25 g and 7–9 weeks of age, provided by Charles River, Calco, Italy) or with […] of 3% thioglycolate in saline to SD rat (370–450 g and 3–4 months of age provided by Charles River, UK). Four hours after injection, the animals were sacrificed by decapitation and peritoneal cavities were washed with saline. PMNs were recovered and centrifuged at 600×g for 10 min. The pellet was resuspended in Hank’s Balanced Salt Solution (HBSS); then the cells were counted using Türk’s solution and diluted at 3 × 10^6 cells/ml.
as §1

[3] = target: rat C5aR (Rattus norvegicus, UniProt P97520); settings: read-out: IC50, rat C5aR (C5a-induced PMN migration); rat PMNs, 10 nM rC5a
rat C5aR, sequence (P97520 whole entry): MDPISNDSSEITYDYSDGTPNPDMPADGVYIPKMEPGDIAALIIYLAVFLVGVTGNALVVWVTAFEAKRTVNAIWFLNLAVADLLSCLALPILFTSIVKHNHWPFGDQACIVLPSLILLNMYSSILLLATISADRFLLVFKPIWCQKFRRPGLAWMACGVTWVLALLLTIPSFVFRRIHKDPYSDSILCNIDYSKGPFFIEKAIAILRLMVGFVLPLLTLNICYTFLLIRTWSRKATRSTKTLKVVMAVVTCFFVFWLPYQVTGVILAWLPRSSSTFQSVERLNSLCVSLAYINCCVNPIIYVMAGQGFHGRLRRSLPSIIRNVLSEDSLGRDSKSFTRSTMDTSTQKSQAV
Experimental: as §2, §1

[4] = system: spontaneous cell migration; assay: Spontaneous PMN migration; format: cell-based
Experimental: (§8) Migration of human, rat, and mouse PMNs was evaluated using a 48-well micro-chemotaxis chamber, as previously described (Bertini et al. [2004]). […] The chamber was incubated at 37 °C in air with 5% CO2 for 45 min. At the end of incubation, filters containing migrated cells were removed, fixed, and stained with Diff-Quik, and five oil immersion fields at high magnification (×100; Zeiss microscope) were counted after sample coding.

[5] = system: PMN migration induced by CXCL8; assay: CXCL8-induced PMN migration; format: cell-based; settings: up to 10 μM
Experimental: as §8

[6] = system: PMN migration induced by CXCL1; assay: CXCL1-induced PMN migration; format: cell-based; settings: up to 10 μM
Experimental: as §8

[7] = system: PMN migration induced by CCL3; assay: CCL3-induced PMN migration; format: cell-based; settings: up to 10 μM
Experimental: as §8

[8] = system: PMN migration induced by fMLP; assay: fMLP-induced PMN migration; format: cell-based; settings: up to 10 μM
Experimental: as §8

[9] = system: PMN migration induced by CXCL12; assay: CXCL12-induced PMN migration; format: cell-based; settings: up to 10 μM
Experimental: as §8

[10] = system: LPS-induced PGE2 accumulation; assay: LPS-induced PGE2 production in peritoneal murine macrophages; format: cell-based, mouse; settings: up to 10 μM, LPS 1 μg/ml, 24 h
Experimental: Cells were placed at 1 × 10^6 ml^−1 in 96-well plates and non-adherent cells removed by gentle washing 2 h later. DF3016A was then added to adherent macrophages 20 min before adding lipopolysaccharide (LPS) (1 μg ml^−1). Control cells received vehicle at the appropriate dilution. Total prostaglandin E2 (PGE2) production was determined in the supernatant 24 h after LPS stimulation. PGE2 levels were measured by Enzyme Immunoassay (EIA) Kit (sensitivity 2.5 pg per well).

[11] = system: panel of GPCRs, enzymes, ion channels, transporters, and nuclear receptors (44 targets); assay: SafetyScreen44 Panel radioligand binding (Eurofins Cerep); settings: 10 μM, triplicate
Experimental: DF3016A was tested in the SafetyScreen44 Panel performed at Eurofins Cerep SA (France) by radio ligand binding assays to assess the off-target activities towards a panel of GPCRs, enzymes, ion channels, transporters, and nuclear receptors. All selected targets are recommended by four major pharmaceutical companies (Bowes et al. [2012]). The compound was tested at a single concentration of 10 μM in triplicate.
DF3016A was dissolved in dimethyl sulfoxide (DMSO) to achieve 10 mM stock solution that was diluted with water/HBSS to a final concentration of 10 μM. Cell membrane homogenates (48 μg protein) were incubated for 60 min at 22 °C with the respective reference compound in the absence or presence of the test compound in a buffer containing 50 mM Tris-HCl (pH 7.4), 2 mM MgCl2, and 1 mM ethylene-diamine-tetra-acetic acid (EDTA). After incubation, the samples were filtered rapidly under vacuum through glass fiber filters (GF/B, Packard Instruments, Meriden, CT, USA) presoaked with 0.3% polyethyleneimine (PEI), and rinsed several times with ice-cold 50 mM Tris-HCl using a 96-sample cell harvester (Unifilter, Packard Instruments). The filters were dried, then counted for radioactivity in a scintillation counter (Topcount, Packard Instruments) using a scintillation cocktail (Microscint-O, Packard Instruments).

[12] = Rat plasma protein binding (rPPB); format: in vitro ADME
[13] = Rat brain tissue binding (rBTB); format: in vitro ADME
[14] = Rat oral pharmacokinetics; format: in vivo
[15] = system: cortical neurons exposed to OGD/R; settings: 500 nM, 1 h OGD, 3 to 48 h of reperfusion
Experimental: DF3016A (500 nM) was added to the cortical neurons which were exposed to O2 and glucose deprivation with glucose-free Neurobasal in Hypoxia Chamber for Cell Culture (BioSpherix) at 5% CO2 atmosphere-[…]. O2 concentration was monitored by using a ProOx sensor controller, and the 0.03% O2 value was considered acceptable. Cells were incubated in this anaerobic chamber for 1 h and then removed from the anaerobic environment. […] Cells of control group were treated identically except that they were not exposed to OGD/R.

[16] = system: cortical neurons exposed to OGD/R; assay: AO/ET staining of live and dead neurons after OGD/R; format: cell-based, rat; settings: 500 nM, OGD/R 3 h
Experimental: DF3016A (500 nM) was added to the cortical neurons which were exposed to O2 and glucose deprivation with glucose-free Neurobasal in Hypoxia Chamber for Cell Culture (BioSpherix) at 5% CO2 atmosphere-85% N2. O2 concentration was monitored by using a ProOx sensor controller, and the 0.03% O2 value was considered acceptable. Cells were incubated in this anaerobic chamber for 1 h and then removed from the anaerobic environment. […] Cells of control group were treated identically except that they were not exposed to OGD/R.
Images have been acquired through a fluorescent microscope combined with a Digital Color Camera.

[17] = system: Ca2+ influx in OGD/R neurons; assay: Fluo-4 NW calcium assay in OGD/R neurons; format: cell-based, rat; settings: 500 nM, P < 0.001 OGD/R-DF vs OGD/R-UT
Experimental: Neuronal cells, grown on 96-well plates, were exposed to OGD/R and treated with 500 nM of DF3016A; growth media were removed, and 100 μl of the dye loading solution (F36206 Fluo-4 NW Calcium Assay Kit, Invitrogen) was added carefully to each well. Plates were incubated at 37 °C for 30 min and then at room temperature for an additional 30 min. […] Data were presented as the ratio between Ca^++ influx and neuronal viability.

[18] = system: C5aR gene expression; assay: C5aR gene expression (qRT-PCR) in OGD/R neurons; format: cell-based, rat; settings: 500 nM
Experimental: (§3) The total RNA, including microRNA (miRNA), from cells in cultures were extracted with Ribospin Kit (GenaAll) followed by Riboclear Plus Kit (GenaAll) to remove residual DNA according to the manufacturer’s protocols.
(§4) Total mRNA transcription (2μg/20 μl) was performed using High Capacity cDNA Reverse Transcription Kit (Applied Biosystems) and reverse transcription for MicroRNA (10 ng/15 μl) was performed using TaqMan MicroRNA Reverse Transcription Kit (Applied Biosystems).
(§5) The qPCR 20 μl/reactions for miR-181a (assay ID: hsa-miR-181a) and C5aR (assay ID: Rn02134203_s1) were conducted in triplicate using TaqMan® MicroRNA Assay Kit and TaqMan® Gene Expression Assays protocol (Applied Biosystems), respectively, following the manufacturer’s instructions. Reactions were performed using a Step One Plus Applied Biosystems thermocycler (Life Technologies) with the default protocol. Briefly, for each reaction 40 cycles of amplification with the following profile were performed: 95 °C for 10 min for the first cycle, followed by 40 cycles of 95 °C for 15 s, and 60 °C for 1 min.
(§6) Relative intensity of PCR-specific amplicons was calculated using the 2^−ΔΔCt method (Livak and Schmittgen [2001]). Beta-actin (assay ID: Rn00667869_m1) and U6 (assay ID: 001973) small nuclear RNA (snRNA) (Han et al. [2015]) were used as internal control to normalize the level of each transcript.

[19] = system: C5a protein level; assay: C5a protein release (ELISA) in OGD/R neurons; format: cell-based, rat; settings: 500 nM
Experimental: (§7) Quantitative measurements of cellular proteins (C5a, TNF-α, IL-1β, and IL-6) in cell culture supernatants were determined by ELISA methods using Rat IL-6, Mouse TNFα, Rat IL-1β PicoKine™ ELISA Kits (Boster Biological Technology) and Rat C5a ELISA Kit (Elabscience Biotechnology Inc.) according to the manufacturer’s instructions. All tests were performed in triplicate.

[20] = system: TNF-α; assay: TNF-α release (ELISA) in OGD/R neurons; format: cell-based, rat; settings: 500 nM
Experimental: as §7

[21] = system: IL-1β; assay: IL-1β release (ELISA) in OGD/R neurons; format: cell-based, rat; settings: 500 nM
Experimental: as §7

[22] = system: miR-181a; assay: miR-181a expression (qPCR) in OGD/R neurons; format: cell-based, rat; settings: 500 nM, P < 0.001 OGD/R-DF vs OGD/R-UT
Experimental: as §3, §4, §5, §6

[23] = rat, in vivo, po, 30 mg/kg
Experimental: SD rats (370–450 g and 3–4 months of age at the time of testing) were purchased from Charles River, UK. All animals were housed in groups of three per room under controlled conditions of temperature (19 to 21 °C) and humidity (50%), and maintained on a 12-h light/dark cycle (lights on at 7 and lights off at 19 including a 30-min dawn/dusk lights increasing/dimming period, respectively). Animals had free access to rat chow pellets CRM (P) and water except during the experimental procedures. All animals were weighed immediately before the test. The test drug was administered orally at 30 mg/kg using saline solution (0.9% NaCl) as vehicle. […] Cardiac blood samples, 0.6 ml, were obtained and placed in EDTA-coated tubes. The tubes were spun at 13,000 rpm for 4 min and 100 μl of supernatant taken and immediately stored at − 80 °C prior to analysis. Plasma samples were analyzed by liquid chromatography–mass spectrometry (LC-MS/MS) following extraction by protein precipitation with internal standard in acetonitrile, and levels of parent measured against an extracted calibration curve of plasma samples spiked with test compound. The whole brain was harvested then placed in a plastic tube and immediately frozen at − 80 °C until required. Brain tissue were homogenized and analyzed by LC-MS/MS following extraction by protein precipitation, and levels of parent measured against an extracted calibration curve of brain homogenate samples spiked with the test compound. Total exposure levels of the test compound in brain and plasma at 2 h postdose were determined.

[24] = system: primary rat cortical neurons; assay: Neuronal viability (MTS), toxicity of DF3016A
Experimental: Neuronal cultures were prepared from cortices of 17–18-day-old Sprague-Dawley rat fetuses. Two pregnant rats, provided from Envigo RMS S.r.l. (Z.I. Azzida, 57–33,049 S. Pietro al Natisone, Udine Italy), were euthanized by exposition to a gradually rising concentration of CO2 and then decapitated. Rat brains were isolated using standard procedures, and after the elimination of meninges, the cortical tissues were dissociated by trituration and digestion with 20 U/ml papain (Invitrogen, Karlsruhe, Germany) for 30 min at 37 °C. Approximately 1 × 10^6 cells in 1 ml DMEM/F12 medium containing 0.2 mM Glutamax, 1% penicillin/streptomycin (Pen/Strep), 5% fetal bovine serum, and 5% horse serum were seeded into poly-D-lysine pretreated plates. […] Neurons were maintained in a humidified atmosphere (5% CO2/95% air) at 37 °C and used for experiments after 8–10 days in vitro.
DF3016A was dissolved in DMSO. The final concentration of DMSO in the medium was below 0.1%. […]
Quantifications of neuronal viability were assessed by MTS method using Cell Titer One Solution Cell Proliferation Assay (Promega Corporation Madison, WI, USA) based on 3-(4,5-dimethylthiazol-2-yl)-5-(3-carboxymethoxyphenil)-2-(4-sulfophenyl)-2H-tetrazolium (MTS) (dilution 1:10). Viable cells with active metabolism convert MTT into formazan, detected by absorbance measurements at 490 nm in a BioTeek Elx800 microplate reader.

C5aR, sequence (P21730 whole entry): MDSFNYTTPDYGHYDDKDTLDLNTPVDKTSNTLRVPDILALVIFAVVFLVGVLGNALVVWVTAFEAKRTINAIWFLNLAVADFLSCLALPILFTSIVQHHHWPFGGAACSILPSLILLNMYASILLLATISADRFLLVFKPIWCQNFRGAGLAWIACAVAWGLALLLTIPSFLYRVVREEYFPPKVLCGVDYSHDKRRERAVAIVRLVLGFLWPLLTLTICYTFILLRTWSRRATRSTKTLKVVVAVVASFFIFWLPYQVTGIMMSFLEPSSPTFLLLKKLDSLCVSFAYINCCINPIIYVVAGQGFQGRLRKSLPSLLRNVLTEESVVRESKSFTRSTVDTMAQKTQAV

## CC(c1ccc(Nc2nc(C(F)(F)F)cs2)cc1)c1nnn[nH]1 (stereo not shown) [DF3016A]
[1]
  IC50: 50 nM
[2]
  IC50: 37 nM
[3]
  IC50: 45 nM
[4]
  Inhibition of spontaneous cell migration per se: did not inhibit
[5]
  Effect on PMN migration induced by CXCL8: no effect
[6]
  Effect on PMN migration induced by CXCL1: no effect
[7]
  Effect on PMN migration induced by CCL3: no effect
[8]
  Effect on PMN migration induced by fMLP: no effect
[9]
  Effect on PMN migration induced by CXCL12: no effect
[10]
  Effect on LPS-induced PGE2 accumulation: no effect
[11]
  Inhibition of the assayed receptors (off-target activities, 44 targets): did not show any inhibition
[12]
  rPPB Fu (free plasma fraction): 0.7%
[13]
  rBTB Fu (free brain fraction): 7.7%
[14]
  Oral t1/2: 6.1 h
  Rat bioavailability: 69%
[15]
  Effect on OGD/R-induced cell death (MTS): significantly attenuated OGD/R-induced cell death
[16]
  Neuronal death by AO/ET staining: close to that of control
[17]
  Ca2+ influx in OGD/R neurons: significant reduction
[18]
  C5aR gene expression after OGD/R: reverted C5aR gene expression to the control levels
[19]
  C5a protein level after OGD/R: restored C5a protein level to not significant values compared to control
[20]
  TNF-α release after OGD/R: restoration of control conditions
[21]
  IL-1β release after OGD/R: restoration of control conditions
[22]
  miR-181a over-expression after OGD/R: completely attenuated
[23]
  Plasma Cmax: 104,683 ± 8867 ng/mL
[23]; 2 h
  Kp (brain to plasma ratio): 0.04
  Kpuu (unbound brain to plasma ratio): 0.44
[24]; 10 nM to 5 μM, 24 h, MTS
  Mortality compared to the control: no significant mortality
[24]; 500 nM, 24, 48, and 72 h
  Viability changes on longer treatment: without significant viability changes

From paper PMC6570783, “The Novel C5aR Antagonist DF3016A Protects Neurons Against Ischemic Neuroinflammatory Injury” (Neurotoxicity Research, 2019)
